The values that follow come from ChEMBL document CHEMBL2321779, “Aminophenoxazinones as inhibitors of indoleamine 2,3-dioxygenase (IDO). Synthesis of exfoliazone and chandrananimycin A” (J Med Chem, 2013).

Assay [1] has as its target T1, Indoleamine 2,3-dioxygenase 1 (Homo sapiens, UniProt P14902). As to the kind of experiment: Inhibition of human recombinant N-terminus 6X-histidine-tagged indoleamine 2,3-dioxygenase expressed in Escherichia coli assessed as inhibition of L-tryptophan to N-formylkynurenine formation measured as residual enzyme activity at 1 uM incubated for 10 mins prior to substrate addition measured …; values are per cent of control.
Target sequence in this assay (P14902 whole entry, looked up): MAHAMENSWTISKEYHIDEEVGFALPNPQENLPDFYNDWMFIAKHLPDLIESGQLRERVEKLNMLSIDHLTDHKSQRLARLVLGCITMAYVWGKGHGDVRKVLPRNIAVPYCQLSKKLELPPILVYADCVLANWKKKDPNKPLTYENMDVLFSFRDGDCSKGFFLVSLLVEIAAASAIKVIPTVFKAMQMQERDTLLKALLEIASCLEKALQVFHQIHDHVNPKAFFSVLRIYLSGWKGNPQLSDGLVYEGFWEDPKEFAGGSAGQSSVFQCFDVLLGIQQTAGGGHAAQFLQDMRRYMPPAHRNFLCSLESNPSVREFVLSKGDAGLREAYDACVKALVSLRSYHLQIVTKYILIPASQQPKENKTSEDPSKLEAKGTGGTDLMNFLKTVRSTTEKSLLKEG

Assay [2] deals with T1, Indoleamine 2,3-dioxygenase 1. As to the kind of experiment: Inhibition of human recombinant N-terminus 6X-histidine-tagged indoleamine 2,3-dioxygenase expressed in Escherichia coli assessed as inhibition of L-tryptophan to N-formylkynurenine formation measured as residual enzyme activity at 10 uM incubated for 10 mins prior to substrate addition measured …; values are per cent of control.
Target sequence in this assay (P14902 whole entry, looked up): as above

The target is the same in assay [3]. As to the kind of experiment: Inhibition of human recombinant N-terminus 6X-histidine-tagged indoleamine 2,3-dioxygenase expressed in Escherichia coli assessed as inhibition of L-tryptophan to N-formylkynurenine formation measured as residual enzyme activity at 0.1 uM incubated for 10 mins prior to substrate addition measured ….
Target sequence in this assay (P14902 whole entry, looked up): as above
Assay [4] shares this target. The assay is described as follows: Inhibition of human recombinant N-terminus 6X-histidine-tagged indoleamine 2,3-dioxygenase expressed in Escherichia coli assessed as inhibition of L-tryptophan to N-formylkynurenine formation measured as residual enzyme activity incubated for 10 mins prior to substrate addition measured after 30 mins by UV-vis spectrophotometric analysis relative to DMSO-treated control.
Target sequence in this assay (P14902 whole entry): as the sequence (P14902 whole entry, looked up) above

As for `COC(=O)c1c2nc3cc(CO)ccc3oc-2cc(=O)c1N`, the residual activity in assay [1] came out at 75%; in assay [2], 34%; in assay [3], 95%.
On the same counts, the results for `Nc1cc2nc3cc(CO)ccc3oc-2cc1=O` are 87%, 80% and 84%.
The like results for `Cc1c2nc3c(C)cccc3oc-2cc(=O)c1N` were, in that order, 100%, 95% and 98%.
The like results for `COC(=O)c1c2nc3c(C(=O)OC)ccc(C)c3oc-2c(C)c(=O)c1N` were, in that order, 29%, 24% and 66%.
For `Nc1cc2nc3c(O)cccc3oc-2cc1=O`, the figures for the residual activity in assay [1], in assay [2] and in assay [3] were 100%, 97% and 100%, respectively.
Consider `Nc1cc2nc3ccccc3oc-2cc1=O`, for which the residual activity in assay [1] was 94%; in assay [2] it was 74%; in assay [3], 82%.
The like results for `Cc1ccc2oc3cc(=O)c(N)cc-3nc2c1` were, in that order, 100%, 91% and 99%.
The like results for `COC(=O)c1c2nc3c(C(=O)OC)cccc3oc-2cc(=O)c1N` were, in that order, 60%, 30% and 94%.
The like results for `CC(=O)Nc1cc2nc3c(O)cccc3oc-2cc1=O` were, in that order, 99%, 92% and 100%.
For the compound `Nc1c(C(=O)O)c2nc3c(C(=O)O)cccc3oc-2cc1=O` [CINNABARINIC ACID], the residual activity in assay [1] amounted to 23%; in assay [2], 11%; in assay [3], 71%. In assay [4], the IC50 is 460 nM. Moreover, the Ki in assay [4] is 326 nM.
As to `CC(=O)Nc1cc2nc3cc(CO)ccc3oc-2cc1=O`, the residual activity in assay [1] was determined as 82%; in assay [2], 74%; in assay [3], 85%.

For orientation: residual activity means the signal under treatment as a percentage of the control signal. Broadly, the IC50 is the concentration needed to halve the response being measured. What is called Ki is a dissociation constant, usually derived from enzyme kinetics or from competition with a known ligand.
